The text below walks through data of US20080045537A1, “Chemical Compounds” (priority 2004, published 2008).

Read-outs that look alike come from different tables or passages of the source.

The test system of data set [1] is T-tropic HIV. As to conditions: patients that are dual tropic or have only the T-tropic form of the virus; cited from earlier work.
The target in data set [2] is T1, human CXCR4 (Homo sapiens, UniProt P61073).
T1 construct: expressed in transfected cells; host or cells: HEK-293 cells (stably expressing human macrophage scavenging receptor) transduced with human CXCR4 BacMam and Gqi5 BacMam baculoviruses
T1 sequence (P61073 whole entry): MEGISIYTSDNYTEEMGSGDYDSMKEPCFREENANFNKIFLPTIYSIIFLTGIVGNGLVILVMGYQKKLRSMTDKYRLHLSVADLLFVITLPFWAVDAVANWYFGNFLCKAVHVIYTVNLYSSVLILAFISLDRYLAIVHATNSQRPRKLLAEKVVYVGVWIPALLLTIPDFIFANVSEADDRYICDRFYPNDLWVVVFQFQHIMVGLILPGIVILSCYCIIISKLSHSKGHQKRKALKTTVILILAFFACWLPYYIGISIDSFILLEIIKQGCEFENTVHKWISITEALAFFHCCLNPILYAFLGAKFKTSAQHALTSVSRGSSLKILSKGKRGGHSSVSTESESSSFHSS
The data set can be described thus: Functional FLIPR assay (block of SDF-1 alpha induced [Ca2+]i change). The data set is classed as cell-based. The following applies: HEK-293 cells with human CXCR4 BacMam and Gqi5 BacMam; antagonism of SDF-1 alpha; read-out: Functional assay (pIC50) (converted). The method, then: Human embryonic kidney (HEK-293) cells were maintained and harvested as described above. Cells were plated in 96-well, black clear bottom, poly-lysine coated plates at a concentration of 40,000 cells per well in a final volume of 100 ul containing human CXCR4BacMam (MOI=25) and Gqi5 BacMam (MOI=12.5). The cells were incubated at 37° C., 5% CO2, 95% humidity for 24 h to allow for protein expression.
After the required incubation time the cells were washed once with 50 ul of fresh serum-free DMEM/F12 media containing probenicid. 50 ul of dye solution was then added to the cells (Calcium Plus Assay Kit Dye; Molecular Devices) was dissolved in 200 ml of the above probenicid/BSA containing media and incubated for 1 h. Cell plates were transferred to a Fluorometric Imaging Plate Reader (FLIPR). Upon addition the effect of the compounds on the change in [Ca^2+]i was examined to determine if the compounds were agonists or antagonists (ability to block SDF-1 alpha activity) at the CXCR4 receptor. IC50 values are determined and pKb values are calculated using the Leff and Dougall equation: KB=IC50/((2+([agonist]/EC50ˆb)ˆ1/b−1) Where IC50 is that defined by the antagonist concentration-response curve [agonist] is the EC80 concentration of agonist used EC50 is that defined by the agonist concentration-response curve b is the slope of the agonist concentration-response curve.

A short description of data set [3]: Compound cytotoxicity in the absence of virus addition (CellTiter-Glo). The data set is classed as cell-based. As to conditions: human; non-infected HOS cultures; read-out: Cytotox (pIC50) (converted). The essentials: (§1)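 Engineered HOS reporter cells in 2% FCS medium received compound 1 h ahead of HIV-1 (~2 million RLU/well). Cultures ran 96 h at 37 °C before luciferase quantitation; parallel uninfected wells were scored for viability by CellTiter-Glo.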
For orientation: Cellular ATP, detected with luciferase, serves as a proxy for viable cell number.

Data set [4] relates to HIV-1 gp160 (from the HXB2 HIV strain). The data set can be described thus: Cell/cell fusion assay (HEK-293 expressing HIV-1 tat, rev, gp160 with HOS hCXCR4/hCCR5/hCD4/pHIV-LTR-luciferase cells). The class given is cell-based. The following applies: Human immunodeficiency virus 1, HXB2, HEK293, 24 h, read-out: Fusion assay (pIC50), luciferase readout after 24 h (converted). The text has this:
The complete coding sequences of HIV-1 tat (GenBank Accession No. X07861) and rev (GenBank Accession No. M34378) were cloned into pcDNA3.1 expression vectors containing G418 and hygromycin resistance genes, respectively. The complete coding sequence of the HIV-1 (HXB2 strain) gp160 envelope gene (nucleotide bases 6225-8795 of GenBank Accession No. K03455) was cloned into plasmid pCRII-TOPO. The three HIV genes were additionally inserted into the baculovirus shuttle vector, pFastBacMam1, under the transcriptional control of the CMV promoter. A construction of the pHIV-I LTR containing mutated NFkB sequences linked to the luciferase reporter gene was prepared by digesting pcDNA3.1, containing the G418 resistance gene, with Nru I and Bam HI to remove the CMV promoter. LTR-luc was then cloned into the Nru I/Bam HI sites of the plasmid vector. Plasmid preparations were performed after the plasmids were amplified in Escherichia coli strain DH5-alpha. The fidelity of the inserted sequences was confirmed by double-strand nucleotide sequencing using an ABI Prism Model 377 automated sequencer.
Recombinant BacMam baculoviruses were constructed from pFastBacMam shuttle plasmids by using the bacterial cell-based Bac-to-Bac system. Viruses were propagated in Sf9 (Spodoptera frugiperda) cells cultured in Hink's TNM-FH Insect media supplemented with 10% (v/v) fetal bovine serum and 0.1% (v/v) pluronic F-68 according to established protocols.
Human osteosarcoma (HOS) cells that naturally express human CXCR4 were transfected with human CCR5, human CD4 and the pHIV-LTR-luciferase plasmid using FuGENE 6 transfection reagent. Single cells were isolated and grown under selection condition in order to generate a stable HOS (hCXCR4/hCCR5/hCD4/pHIV-LTR-luciferase) clonal cell line. The cells were maintained in Dulbeccos modified Eagles media supplemented with 10% fetal calf serum (FCS), G418 (400 ug/ml), puromycin (1 ug/ml), mycophenolic acid (40 ug/ml), xanthine (250 ug/ml) and hypoxanthine (13.5 ug/ml) to maintain a selection pressure for cells expressing the LTR-luciferase, hCCR5 and hCD4, respectively. Human embryonic kidney (HEK-293) cells stably transfected to express the human macrophage scavenging receptor (Class A, type 1; GenBank Accession No. D90187), were maintained in DMEM/F-12 media (1:1) supplemented with 10% FCS and 1.5 ug/ml puromycin. The expression of this receptor by the HEK-293 cells enhances their ability to stick to tissue culture treated plasticware.
HEK-293 cells were harvested using enzyme-free cell dissociation buffer. The cells were resuspended in DMEM/F-12 media supplemented with 10% FCS and 1.5 ug/ml and counted. Tranductions were performed by direct addition of BacMam baculovirus containing insect cell media to cells. The cells were simultaneously transduced with BacMam baculovirus expressing HIV-1 tat, HIV-1 rev and HIV-1 gp160 (from the HXB2 HIV strain). Routinely an MOI of 10 of each virus was added to the media containing the cells. 2 mM butyric acid was also added to the cells at this stage to increase protein expression in transduced cells. The cells were subsequently mixed and seeded into a flask at 30 million cells per T225. The cells were incubated at 37° C., 5% CO2, 95% humidity for 24 h to allow for protein expression.
HEK and HOS cells were harvested in DMEM/F-12 media containing 2% FCS and DMEM media containing 2% FCS, respectively, with no selection agents added. Compounds were plated as 1 ul spots in 100% DMSO on a 96-well CulturPlate plates. HOS cells (50 ul) were added first to the wells, followed immediately by the HEK cells (50 ul). The final concentration of each cell type was 20,000 cells per well. Following these additions, the cells were returned to a tissue culture incubator (37° C.; 5% CO2/95% air) for an additional 24 h.
Following the 24 h incubation, total cellular luciferase activity was measured using the LucLite Plus assay kit (Packard, Meridien, Conn.). […]

Data set [5] has as its system HIV-1 IIIB (T-tropic, CXCR4 utilizing). The data set can be described thus: HOS HIV-1 infectivity assay. The data set is classed as cell-based. The essentials: as §1
Setting [6] is: Human immunodeficiency virus 1, IIIB, as determined by the infectivity assay, strain not stated in Table 2, read-out: Activity Level.
[7] abbreviates: Human immunodeficiency virus 1, HIV-1 IIIB, HOS cells, 96 h, luciferase readout, read-out: HOS (3B).
[8] abbreviates: as determined by the infectivity assay, strain not stated in Table 2, read-out: Activity Level.

`c1cc(CN2CCCNCCNCCCNCC2)ccc1CN1CCCNCCNCCCNCC1` [AMD-3100]: in data set [1], the “T-tropic HIV viral load” value is “significantly reduce T-tropic HIV viral load”.
`CN(Cc1nc2c(C(=O)NCCN)cccc2[nH]1)C1CCCc2cccnc21` (stereo not drawn) [Example 26, N-(2-Aminoethyl)-2-{[methyl(5,6,7,8-tetrahydro-8-quinolinyl)amino]methyl}-1H-benzimidazole-4-carboxamide]: the IC50 is 20.9 nM in data set [2], 49 nM in data set [4], < 100 nM in data set [5] (setting [6]) and 27 nM in data set [5] (setting [7]). Besides, in data set [3], the IC50 at 96 h was > 100000 nM.
For `CN(Cc1nc2c(C(=O)NCCCN3CCCC3)cccc2[nH]1)C1CCCc2cccnc21` (stereo not drawn) [Example 28, 2-{[Methyl(5,6,7,8-tetrahydro-8-quinolinyl)amino]methyl}-N-[3-(1-pyrrolidinyl)propyl]-1H-benzimidazole-4-carboxamide], in that order: 57.5 nM, 148 nM, < 100 nM, 44 nM and > 100000 nM.
For `CN(C)CCCNC(=O)c1cccc2[nH]c(CN(C)C3CCCc4cccnc43)nc12` (stereo not drawn) [Example 29, N-[3-(Dimethylamino)propyl]-2-{[methyl(5,6,7,8-tetrahydro-8-quinolinyl)amino]methyl}-1H-benzimidazole-4-carboxamide], in that order: 132 nM, 257 nM, < 100 nM, 81 nM and > 100000 nM.
`CN(Cc1nc2c(C(=O)N3CCC(N)CC3)cccc2[nH]1)C1CCCc2cccnc21` (stereo not drawn) [Example 30, N-({4-[(4-Amino-1-piperidinyl)carbonyl]-1H-benzimidazol-2-yl}methyl)-N-methyl-5,6,7,8-tetrahydro-8-quinolinamine]: the IC50 was 2000 nM in data set [2], 407 nM in data set [4], 75 nM in data set [5] (setting [7]) and < 100 nM in data set [5] (setting [8]). Further, the IC50 at 96 h in data set [3] is > 100000 nM.
As for `CN(Cc1nc2c(C(=O)N3CCC(N)C3)cccc2[nH]1)C1CCCc2cccnc21` (stereo not drawn) [Example 31, N-({4-[(3-Amino-1-pyrrolidinyl)carbonyl]-1H-benzimidazol-2-yl}methyl)-N-methyl-5,6,7,8-tetrahydro-8-quinolinamine], the IC50 is 12.3 nM in data set [2], 49 nM in data set [4], 22 nM in data set [5] (setting [7]) and < 100 nM in data set [5] (setting [8]). Further, the IC50 at 96 h in data set [3] was > 100000 nM.
For `CN(Cc1nc2c(CNCCc3c[nH]cn3)cccc2[nH]1)C1CCCc2cccnc21` (stereo not drawn) [Example 32, N-{[4-({[2-(1H-Imidazol-4-yl)ethyl]amino}methyl)-1H-benzimidazol-2-yl]methyl}-N-methyl-5,6,7,8-tetrahydro-8-quinolinamine], the IC50 in data set [2] is 66.1 nM; in data set [4], 85.1 nM; in data set [5] (setting [6]) it was < 100 nM; in data set [5] (setting [7]), 45 nM. For the same molecule, the IC50 at 96 h in data set [3] was 7590 nM.
On to `CN(Cc1nc2c(CN3CCNCC3)cccc2[nH]1)C1CCCc2cccnc21` (stereo not drawn) [Example 33, N-Methyl-N-{[4-(1-piperazinylmethyl)-1H-benzimidazol-2-yl]methyl}-5,6,7,8-tetrahydro-8-quinolinamine], for which the IC50 in data set [2] is 15.1 nM; in data set [4], 162 nM; in data set [5] (setting [6]) it was < 100 nM; in data set [5] (setting [7]) it was 13 nM. Moreover, the IC50 at 96 h in data set [3] is > 100000 nM.
For `CN(Cc1nc2c(N3CCNCC3)cccc2[nH]1)C1CCCc2cccnc21` (stereo not drawn) [Example 34, N-methyl-N-{[4-(1-piperazinyl)-1H-benzimidazol-2-yl]-methyl}-5,6,7,8-tetrahydro-8-quinolinamine], the IC50 in data set [2] was 8.13 nM; in data set [4], 5.5 nM; in data set [5] (setting [7]), 6.2 nM. Further, the IC50 at 96 h in data set [3] was > 100000 nM.
Consider `CN1CCN(c2cccc3nc(CN(C)C4CCCc5cccnc54)[nH]c23)CC1` (stereo not drawn) [Example 35, N-methyl-N-{[4-(4-methyl-1-piperazinyl)-1H-benzimidazol-2-yl]methyl}-5,6,7,8-tetrahydro-8-quinolinamine], for which the IC50 was 5.89 nM in data set [2], 0.389 nM in data set [4], < 100 nM in data set [5] (setting [6]) and 1.6 nM in data set [5] (setting [7]). Also, in data set [3], the IC50 at 96 h was > 100000 nM.
